# Experimental data taken from patent US9834514B2, “Antibiotic sensitivity-restoring and photosensitive agents” (New Mexico Tech Research Foundation, priority 2015, dated 2017).
# Tests used:
# VRE [1] = assay: MIC against VRE; format: cell-based, Enterococcus faecalis; settings: Enterococcus, TABLE 23, read-out: VRE MIC
# Procedure: In a 12×75 mm borosilicate glass culture tube, 1 mL of cell suspension was added. Then, compound 7 was added to the cells, and the samples were mixed using a vortex mixer. […] The samples were incubated overnight at 37° C. on a rotary shaking incubator at 100 rpm.
# P. aeruginosa = assay: MIC against P. aeruginosa; format: cell-based; settings: Pseudomonas aeruginosa, read-out: MIC
# Description: Only compound 1 was able to decrease the CFU/mL when used in conjunction with white light to treat P. aeruginosa.
# A. baumannii = assay: Resensitization to antibiotics (log reduction, TABLE 29); format: cell-based
# [2] = system: MRSA isolates (S. aureus ATCC 33591, BAA-44, BAA-1707, BAA-1717, BAA-1720, BAA-1747, BAA-1754, BAA-1761, BAA-1763, BAA-1764, BAA-1766); assay: Combination effects of compounds 7-11 and antibiotics on MRSA isolates (turbidity); format: cell-based
# Description: Inhibition resulting from co-treatment of a broth suspension with a compound of the invention and an antibiotic was compared to broth suspensions subjected to each individual treatment. A visual observation of inhibition with the unaided eye upon co-treatment of the broth suspensions, based on turbidity, was considered synergistic.
# Exceptions to reading complete inhibition of growth included Gram-positive cocci. For Gram-positive cocci, trailing growth was observed. For these species, the MICs were read at the first spot where trailing was observed, and tiny buttons of growth were ignored. […]
# Two-fold dilutions of the antibiotics were prepared in a liquid growth medium dispensed in test tubes. […] The antibiotic-containing tubes were inoculated with a standard bacterial suspension of 5×10^5 CFU/mL. Following an overnight incubation (16-20 hrs) at 35±2° C. under ambient air, the tubes were examined for visible bacterial growth based on turbidity. The lowest concentration of antibiotic that prevented growth was determined to be the MIC. An incubation time of 24 hrs was used to determine the MICs of oxacillin and vancomycin.
# [3] = system: Klebsiella pneumoniae (CRE, ATCC BAA-1705); assay: Cell killing of CRE with compounds in presence or absence of PMB (CFU/mL); format: cell-based; settings: for PMB + Comp: PMB @ 0.2 μg/mL + Comp @ 20 µM; for Comp @ 20 µM: compound alone
# Procedure: Klebsiella pneumoniae (CRE, ATCC BAA-1705) was grown in TSB overnight at 37° C. and diluted to about 5×10^5 CFU/mL using a McFarland Latex Turbidity standard (0.5). One mL of the cell suspension was transferred to a glass culture test tube. PMB was added to the cell suspension resulting in a final concentration of 200 μg/mL of PMB. The cell suspension was incubated at 37° C. on a rotary shaking incubator at 150 rpm for 4 hours. Compounds 1, 7, 8, 9, 10, and 11 were added to the cell suspension, resulting in a concentration of 20 μM for each of the compounds. The cell suspensions containing the compounds were incubated at 37° C. on a rotary shaking incubator at 150 rpm for 4 hours. Each sample was diluted tenfold to a 10^−5 dilution. Ten 10 microliters of each dilution from each sample was dripped onto a TSA plate and allowed to streak down the plate. The agar plates were incubated at 37° C. for 18-24 hours. Colony counts were performed and CFU/mL values were calculated.
# The MICs of PMB and compounds 7-11 were determined against Klebsiella pneumoniae (CRE, ATCC BAA-1705). […] After the incubation with PMB, each of the compounds was added at a concentration of 20 μM, and the samples were incubated for an additional 18 hours. A sample was taken and diluted ten-fold in media. Ten microliters of each dilution was then drip-streaked onto an agar plate and incubated overnight at 37° C. Colony counts were then performed and the concentrations of cells (CFU/mL) were calculated.
# [4] = system: Klebsiella pneumoniae (CRE, ATCC BAA-1705); assay: Time-dependent colony counts of CRE with compounds and PME; format: cell-based; settings: PME 0.2 μg/mL, compound 20 μM; FIGS. 48, 49
# Procedure: The MICs of PME and compounds 8-11 were determined against Klebsiella pneumoniae (CRE, ATCC BAA-1705). […] […] At specific time points, the samples were taken and diluted ten-fold in media. Ten microliters of each dilution was then drip-streaked onto an agar plate and incubated overnight at 37° C. Colony counts were then performed and the CFU/mL were calculated.
# VRE [5] = assay: Resensitization to antibiotics (log reduction, TABLE 29); format: cell-based, Enterococcus faecalis
structure (smiles),measurement,setting,value
Brc1ccc(/N=N/c2c[nH]c3ccccc23)cc1 [Compound 8],MIC,VRE [1],2 µM
same,MIC,P. aeruginosa,> 100 µM
same,Log Reduction,"A. baumannii; compound 5 μM, PME (0.05 μg/mL)",9
same,Log Reduction,"A. baumannii; compound 20 μM, PMB (0.2 μg/mL)",9
same,combination effect with Gentamycin,[2]; MRSA ATCC 33591,No Synergy
same,combination effect with Norfloxacin,[2]; MRSA ATCC 33591,No Synergy
same,combination effect with Oxacillin,[2]; MRSA ATCC 33591,No Synergy
same,combination effect with Tetracycline,[2]; MRSA ATCC 33591,No Synergy
same,combination effect with Vancomycin,[2]; MRSA ATCC 33591,Susceptible
same,combination effect with Norfloxacin,[2]; MRSA ATCC BAA-44,No Synergy
same,combination effect with Oxacillin,[2]; MRSA ATCC BAA-44,No Synergy
same,combination effect with Tetracycline,[2]; MRSA ATCC BAA-44,Susceptible
same,combination effect with Vancomycin,[2]; MRSA ATCC BAA-44,Susceptible
same,combination effect with Gentamycin,[2]; MRSA ATCC BAA-1707,Susceptible
same,combination effect with Norfloxacin,[2]; MRSA ATCC BAA-1707,Susceptible
same,combination effect with Oxacillin,[2]; MRSA ATCC BAA-1707,Susceptible
same,combination effect with Tetracycline,[2]; MRSA ATCC BAA-1707,No Synergy
same,combination effect with Vancomycin,[2]; MRSA ATCC BAA-1707,Susceptible
same,combination effect with Gentamycin,[2]; MRSA ATCC BAA-1717,Susceptible
same,combination effect with Norfloxacin,[2]; MRSA ATCC BAA-1717,Susceptible
same,combination effect with Oxacillin,[2]; MRSA ATCC BAA-1717,Synergy
same,combination effect with Tetracycline,[2]; MRSA ATCC BAA-1717,Susceptible
same,combination effect with Vancomycin,[2]; MRSA ATCC BAA-1717,Susceptible
same,combination effect with Gentamycin,[2]; MRSA ATCC BAA-1720,Susceptible
same,combination effect with Norfloxacin,[2]; MRSA ATCC BAA-1720,No Synergy
same,combination effect with Oxacillin,[2]; MRSA ATCC BAA-1720,Synergy
same,combination effect with Tetracycline,[2]; MRSA ATCC BAA-1720,Susceptible
same,combination effect with Vancomycin,[2]; MRSA ATCC BAA-1720,Susceptible
same,combination effect with Gentamycin,[2]; MRSA ATCC BAA-1747,Susceptible
same,combination effect with Norfloxacin,[2]; MRSA ATCC BAA-1747,Susceptible
same,combination effect with Oxacillin,[2]; MRSA ATCC BAA-1747,Susceptible
same,combination effect with Tetracycline,[2]; MRSA ATCC BAA-1747,Susceptible
same,combination effect with Vancomycin,[2]; MRSA ATCC BAA-1747,Susceptible
same,combination effect with Gentamycin,[2]; MRSA ATCC BAA-1754,Susceptible
same,combination effect with Norfloxacin,[2]; MRSA ATCC BAA-1754,Susceptible
same,combination effect with Oxacillin,[2]; MRSA ATCC BAA-1754,Synergy
same,combination effect with Tetracycline,[2]; MRSA ATCC BAA-1754,Susceptible
same,combination effect with Vancomycin,[2]; MRSA ATCC BAA-1754,Susceptible
same,combination effect with Gentamycin,[2]; MRSA ATCC BAA-1761,Susceptible
same,combination effect with Norfloxacin,[2]; MRSA ATCC BAA-1761,No Synergy
same,combination effect with Oxacillin,[2]; MRSA ATCC BAA-1761,Susceptible
same,combination effect with Tetracycline,[2]; MRSA ATCC BAA-1761,Susceptible
same,combination effect with Vancomycin,[2]; MRSA ATCC BAA-1761,Susceptible
same,combination effect with Gentamycin,[2]; MRSA ATCC BAA-1763,Susceptible
same,combination effect with Norfloxacin,[2]; MRSA ATCC BAA-1763,No Synergy
same,combination effect with Oxacillin,[2]; MRSA ATCC BAA-1763,Synergy
same,combination effect with Tetracycline,[2]; MRSA ATCC BAA-1763,Susceptible
same,combination effect with Vancomycin,[2]; MRSA ATCC BAA-1763,Susceptible
same,combination effect with Gentamycin,[2]; MRSA ATCC BAA-1764,Susceptible
same,combination effect with Norfloxacin,[2]; MRSA ATCC BAA-1764,Susceptible
same,combination effect with Oxacillin,[2]; MRSA ATCC BAA-1764,Synergy
same,combination effect with Tetracycline,[2]; MRSA ATCC BAA-1764,Susceptible
same,combination effect with Vancomycin,[2]; MRSA ATCC BAA-1764,Susceptible
same,combination effect with Gentamycin,[2]; MRSA ATCC BAA-1766,Susceptible
same,combination effect with Norfloxacin,[2]; MRSA ATCC BAA-1766,Susceptible
same,combination effect with Oxacillin,[2]; MRSA ATCC BAA-1766,Synergy
same,combination effect with Tetracycline,[2]; MRSA ATCC BAA-1766,Susceptible
same,combination effect with Vancomycin,[2]; MRSA ATCC BAA-1766,Susceptible
same,PMB + Comp,[3],None Detected
same,Comp @ 20 µM,[3],6.6 × 10^8 CFU/mL
same,CRE colony populations on simultaneous treatment with PME,[4],reduced the CRE colony populations to sterility
same,Log Reduction,"VRE [5]; compound 7.5 μM, Tetracycline (1.5 μg/mL)",3-4
same,Log Reduction,"VRE [5]; compound 7.5 μM, Vancomycin (3.5 μg/mL)",3
Clc1ccc(Oc2c(-c3ccc(Cl)cc3)[nH]c3ccccc23)cc1 [Compound 10],MIC,VRE [1],10 to 20 µM
same,MIC,P. aeruginosa,> 100 µM
same,Log Reduction,"A. baumannii; compound 5 μM, PME (0.2 μg/mL)",8
same,combination effect with Gentamycin,[2]; MRSA ATCC 33591,No Synergy
same,combination effect with Norfloxacin,[2]; MRSA ATCC 33591,No Synergy
same,combination effect with Oxacillin,[2]; MRSA ATCC 33591,No Synergy
same,combination effect with Tetracycline,[2]; MRSA ATCC 33591,No Synergy
same,combination effect with Vancomycin,[2]; MRSA ATCC 33591,Susceptible
same,combination effect with Norfloxacin,[2]; MRSA ATCC BAA-44,No Synergy
same,combination effect with Oxacillin,[2]; MRSA ATCC BAA-44,No Synergy
same,combination effect with Tetracycline,[2]; MRSA ATCC BAA-44,Susceptible
same,combination effect with Vancomycin,[2]; MRSA ATCC BAA-44,Susceptible
same,combination effect with Gentamycin,[2]; MRSA ATCC BAA-1707,Susceptible
same,combination effect with Norfloxacin,[2]; MRSA ATCC BAA-1707,Susceptible
same,combination effect with Oxacillin,[2]; MRSA ATCC BAA-1707,Susceptible
same,combination effect with Tetracycline,[2]; MRSA ATCC BAA-1707,Synergy
same,combination effect with Vancomycin,[2]; MRSA ATCC BAA-1707,Susceptible
same,combination effect with Gentamycin,[2]; MRSA ATCC BAA-1717,Susceptible
same,combination effect with Norfloxacin,[2]; MRSA ATCC BAA-1717,Susceptible
same,combination effect with Oxacillin,[2]; MRSA ATCC BAA-1717,Synergy
same,combination effect with Tetracycline,[2]; MRSA ATCC BAA-1717,Susceptible
same,combination effect with Vancomycin,[2]; MRSA ATCC BAA-1717,Susceptible
same,combination effect with Gentamycin,[2]; MRSA ATCC BAA-1720,Susceptible
same,combination effect with Norfloxacin,[2]; MRSA ATCC BAA-1720,No Synergy
same,combination effect with Oxacillin,[2]; MRSA ATCC BAA-1720,No Synergy
same,combination effect with Tetracycline,[2]; MRSA ATCC BAA-1720,Susceptible
same,combination effect with Vancomycin,[2]; MRSA ATCC BAA-1720,Susceptible
same,combination effect with Gentamycin,[2]; MRSA ATCC BAA-1747,Susceptible
same,combination effect with Norfloxacin,[2]; MRSA ATCC BAA-1747,Susceptible
same,combination effect with Oxacillin,[2]; MRSA ATCC BAA-1747,Susceptible
same,combination effect with Tetracycline,[2]; MRSA ATCC BAA-1747,Susceptible
same,combination effect with Vancomycin,[2]; MRSA ATCC BAA-1747,Susceptible
same,combination effect with Gentamycin,[2]; MRSA ATCC BAA-1754,Susceptible
same,combination effect with Norfloxacin,[2]; MRSA ATCC BAA-1754,Susceptible
same,combination effect with Oxacillin,[2]; MRSA ATCC BAA-1754,No Synergy
same,combination effect with Tetracycline,[2]; MRSA ATCC BAA-1754,Susceptible
same,combination effect with Vancomycin,[2]; MRSA ATCC BAA-1754,Susceptible
same,combination effect with Gentamycin,[2]; MRSA ATCC BAA-1761,Susceptible
same,combination effect with Norfloxacin,[2]; MRSA ATCC BAA-1761,No Synergy
same,combination effect with Oxacillin,[2]; MRSA ATCC BAA-1761,Susceptible
same,combination effect with Tetracycline,[2]; MRSA ATCC BAA-1761,Susceptible
same,combination effect with Vancomycin,[2]; MRSA ATCC BAA-1761,Susceptible
same,combination effect with Gentamycin,[2]; MRSA ATCC BAA-1763,Susceptible
same,combination effect with Norfloxacin,[2]; MRSA ATCC BAA-1763,No Synergy
same,combination effect with Oxacillin,[2]; MRSA ATCC BAA-1763,No Synergy
same,combination effect with Tetracycline,[2]; MRSA ATCC BAA-1763,Susceptible
same,combination effect with Vancomycin,[2]; MRSA ATCC BAA-1763,Susceptible
same,combination effect with Gentamycin,[2]; MRSA ATCC BAA-1764,Susceptible
same,combination effect with Norfloxacin,[2]; MRSA ATCC BAA-1764,Susceptible
same,combination effect with Oxacillin,[2]; MRSA ATCC BAA-1764,No Synergy
same,combination effect with Tetracycline,[2]; MRSA ATCC BAA-1764,Susceptible
same,combination effect with Vancomycin,[2]; MRSA ATCC BAA-1764,Susceptible
same,combination effect with Gentamycin,[2]; MRSA ATCC BAA-1766,Susceptible
same,combination effect with Norfloxacin,[2]; MRSA ATCC BAA-1766,Susceptible
same,combination effect with Oxacillin,[2]; MRSA ATCC BAA-1766,No Synergy
same,combination effect with Tetracycline,[2]; MRSA ATCC BAA-1766,Susceptible
same,combination effect with Vancomycin,[2]; MRSA ATCC BAA-1766,Susceptible
same,PMB + Comp,[3],None Detected
same,Comp @ 20 µM,[3],7.9 × 10^8 CFU/mL
same,CRE colony populations on simultaneous treatment with PME,[4],reduced the CRE colony populations to sterility
same,Log Reduction,"VRE [5]; compound 2 μM, Dicloxacillin (10 μg/mL)",5
same,Log Reduction,"VRE [5]; compound 2 μM, Norfloxacin (5 μg/mL)",5-6
